PMC5741980 (Journal of Experimental Pharmacology, 2017)
Peptide text beside a SMILES is read from it.

Columns and labels:
human V1 receptors [1] = target: T1, human V1 receptors (Homo sapiens, UniProt P37288); assay: Competitive binding assay, [3H]AVP, CHO-S cell membrane homogenates; details: for affinity (selectivity) for V1 higher than for V2: this study
human V2 receptors [2] = target: T2, human V2 receptors (Homo sapiens, UniProt P30518); assay: Competitive binding assay, [3H]AVP, CHO-K1 cell membrane homogenates
human V1 receptors [3] = target: T1, human V1 receptors; assay: Functional assay, intracellular calcium mobilization; assay type: cell-based; details: compared with maximal effect of AVP
human V2 receptors [4] = target: T2, human V2 receptors; assay: Functional assay, cAMP production; assay type: cell-based; details: compared with maximal effect of AVP
human V1 receptors [5] = target: T1, human V1 receptors; details: cited from earlier work; for Ki: read-out: mean binding affinity (Ki) for human V1 receptors, human vascular smooth muscle cells
rat V1 receptors [6] = details: cited from earlier work
human V1 receptors [7] = target: T1, human V1 receptors; details: intracellular calcium mobilization; cited from earlier work
rat V1 receptors [8] = details: intracellular calcium mobilization; cited from earlier work
V1 activation = details: rat model of portal hypertension, cited from earlier work
V1 = details: cited from earlier work; for EC50: read-out: EC50 for V1 activation, recombinant system, functional assay

T1 sequence (P37288 whole entry): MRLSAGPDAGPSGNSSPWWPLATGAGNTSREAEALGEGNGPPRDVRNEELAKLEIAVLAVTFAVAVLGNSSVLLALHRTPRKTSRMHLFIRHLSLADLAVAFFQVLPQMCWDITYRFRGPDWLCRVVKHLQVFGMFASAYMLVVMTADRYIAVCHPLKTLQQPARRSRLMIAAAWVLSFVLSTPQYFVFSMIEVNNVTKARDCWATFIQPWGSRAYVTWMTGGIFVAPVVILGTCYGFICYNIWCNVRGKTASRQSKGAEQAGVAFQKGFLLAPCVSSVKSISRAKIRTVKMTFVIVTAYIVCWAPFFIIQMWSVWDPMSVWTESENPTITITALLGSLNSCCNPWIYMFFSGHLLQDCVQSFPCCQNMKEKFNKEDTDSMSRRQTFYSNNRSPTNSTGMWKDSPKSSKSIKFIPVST
T2 sequence (P30518 whole entry): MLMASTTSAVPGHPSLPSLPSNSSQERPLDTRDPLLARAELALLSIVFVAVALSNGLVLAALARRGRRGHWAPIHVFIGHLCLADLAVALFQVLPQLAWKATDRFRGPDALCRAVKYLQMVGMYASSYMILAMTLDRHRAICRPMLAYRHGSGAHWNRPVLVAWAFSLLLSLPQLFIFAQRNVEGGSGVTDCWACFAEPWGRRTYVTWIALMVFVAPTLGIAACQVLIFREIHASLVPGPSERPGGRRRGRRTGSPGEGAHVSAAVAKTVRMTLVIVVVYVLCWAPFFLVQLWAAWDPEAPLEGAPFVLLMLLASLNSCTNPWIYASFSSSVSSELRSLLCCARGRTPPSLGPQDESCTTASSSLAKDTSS

| Molecule | affinity (selectivity) for V1 higher than for V2 (human V1 receptors [1]) | binding affinity less than that of LVP, V1 receptors (human V1 receptors [1]; versus LVP) | binding affinity less than that of LVP, V2 receptors (human V2 receptors [2]; versus LVP) | agonist type at V1 receptors (human V1 receptors [3]) | agonist type at V2 receptors (human V2 receptors [4]) | selectivity for V1 receptors higher than for V2 receptors (human V1 receptors [5]; Colson et al) [fold] | Ki (human V1 receptors [5]) [nM] | binding affinity less than that of LVP, human V1 receptors (human V1 receptors [5]; versus LVP) | difference in binding versus LVP at rat V1 receptors (rat V1 receptors [6]) [fold] | mean maximal cell activation at human V1 receptors (human V1 receptors [7]) [%] | mean maximal cell activation at rat V1 receptors (rat V1 receptors [8]) [%] | mean potency for V1 activation in vasopressor tests (V1 activation) [IU×µmol^−1] | mean potency less than that of vasopressin (V1 activation; vasopressor tests) | EC50 (V1) [nM] | EC50 higher than that for LVP (V1; versus LVP) | binding affinity less than that of AVP, V1 receptors (human V1 receptors [1]; versus AVP) | binding affinity less than that of AVP, V2 receptors (human V2 receptors [2]; versus AVP) |
| --- | --- | --- | --- | --- | --- | --- | --- | --- | --- | --- | --- | --- | --- | --- | --- | --- | --- |
| NCCCC[C@H](NC(=O)[C@@H]1CCCN1C(=O)[C@@H]1CSSC[C@H](NC(=O)CNC(=O)CNC(=O)CN)C(=O)N[C@@H](Cc2ccc(O)cc2)C(=O)N[C@@H](Cc2ccccc2)C(=O)N[C@@H](CCC(N)=O)C(=O)N[C@@H](CC(N)=O)C(=O)N1)C(=O)NCC(N)=O [Terlipressin, N^α-tryglycl-8-lysine-vasopressin] (HELM PEPTIDE1{G.G.G.C.Y.F.Q.N.C.P.K.G.[am]}$PEPTIDE1,PEPTIDE1,4:R3-9:R3$$$V2.0; bridges inferred) | approximately sixfold | about 600 fold | about 700 fold | partial agonist | full agonist | 1.9 | 1230 | about 120 fold | ~700 | 48 | 66 | 9 | about 66 fold | 148 | about 150 fold |  |  |
| vasopressin: vasopressin comparator in Bernadich et al rat vasopressor tests; probably AVP |  |  |  |  |  |  |  |  |  |  |  | 614 |  |  |  |  |  |
| NCCCC[C@H](NC(=O)[C@@H]1CCCN1C(=O)[C@@H]1CSSC[C@H](N)C(=O)N[C@@H](Cc2ccc(O)cc2)C(=O)N[C@@H](Cc2ccccc2)C(=O)N[C@@H](CCC(N)=O)C(=O)N[C@@H](CC(N)=O)C(=O)N1)C(=O)NCC(N)=O [LVP, [Lys8]-vasopressin] | approximately sixfold |  |  | full agonist | full agonist |  | 10 |  |  | 100 | 100 |  |  | 0.93 |  | about twofold | about 12 fold |
